Experimental findings from PMC9551036, “A selective and orally bioavailable VHL-recruiting PROTAC achieves SMARCA2 degradation in vivo” (Nature Communications, 2022) are described below.

One experiment deals with T1, SMARCA4^BD (Homo sapiens, UniProt P51532).
T1 construct: P51532, residues 1448–1569 with additional N-terminal SM residues; GST (TEV site) (N, cleaved yes); made in house; host or cells: Escherichia coli BL21(DE3); construct from SGC Toronto
Briefly: SPR binding to immobilised SMARCA4 bromodomain. On the procedure: SMARCA4^BD was provided by the Structural Genomics Consortium (SGC), Toronto[32] and SMARCA2^BD and PRM1^BD5 were synthesised by GeneArt then subcloned into pDEST15 vectors (Invitrogen). The VCB complex was expressed and purified as described previously, with the modification that 0.3 mM IPTG was used for induction of expression. […] Both were stored in 20 mM 4-(2-hydroxyethyl)−1-piperazineethanesulfonic acid (HEPES), 150 mM sodium chloride and 1 mM tris(2-carboxyethyl)phosphine (TCEP) pH 7.5. SMARCA2^BD, SMARCA4^BD and PBRM1^BD5 were expressed in Escherichia coli BL21(DE3) as N-terminal GST fusion proteins with a TEV protease cleavage site. Expression and purification of these proteins has been described previously[32],[33]. Starter cultures were grown overnight at 37 °C in 10 mL of Luria-Bertani (LB) medium with ampicillin (100 μg/mL). The starter cultures were diluted (1:100) in Terrific Broth (TB) medium with ampicillin (100 μg/mL) and grown in a shaking incubator at 37 °C to an optical density (OD600) ~1 before the temperature was lowered for induction (to 23 °C for SMARCA2^BD or 18 °C for SMARCA4^BD and PRRM1^BD5). […] Cells were harvested by centrifugation and stored at −80 °C prior to purification. Cells were resuspended in Lysis buffer and lysed by sonication (20 pulses of 5 s for 4 min) using a Sonopuls HD 3080 (Bandelin, Berlin, Germany) or by homogenisation using a Stansted Pressure Cell Homogeniser (Stansted Fluid Power). The Lysis buffers were as follows: for SMARCA2^BD: 50 mM HEPES, 500 mM sodium chloride, 5% glycerol, 5 mM dithiothreitol (DTT); for SMARCA4^BD: 25 mM HEPES, 0.3 M sodium chloride, 5% glycerol, 10 mM DTT, pH 7.5; for PBRM1^BD5: 25 mM HEPES, 300 mM sodium chloride, 5% glycerol, 10 mM DTT, pH 7.8; in each case supplemented with complete protease inhibitors (Roche). Affinity purification was performed using Glutathione Sepharose 4B (GE Healthcare) in batch mode or on-column. […] For SMARCA2^BD, prior to TEV protease cleavage the eluted GST-tagged BD was first dialysed into desalting buffer (20 mM HEPES, 250 mM sodium chloride, pH 7.0 + 0.5% glycerol). Where TEV cleavage was performed in solution, a second affinity (GST-trap) column purification step was carried out to remove the GST-tag and uncleaved GST-tagged protein. Proteins were further purified by SEC (HiLoad Superdex-75, 16/600) (GE Healthcare) and stored in Storage buffer (for SMARCA2^BD: 20 mM HEPES, 150 mM sodium chloride, pH 7.5; for SMARCA4^BD: 10 mM HEPES, 0.5 M NaCl, 5% glycerol, pH 7.5; for PBRM1^BD5: 20 mM HEPES, 300 mM NaCl, 5 mM DTT, pH 7.8). For AlphaScreen assays, eluted GST-tagged BDs were purified directly by SEC in the respective storage buffers without TEV cleavage. All chromatography purification steps were performed either at room temperature or 4 °C using an ÄKTA FPLC purification system (GE Healthcare) or a plastic Econo-Pac column (Bio-Rad).
SPR data were acquired on Biacore 8K or T200 instruments (Cytiva). Target proteins were immobilised at 25 °C on CM5 chips by amine coupling (EDC/NHS, Cytiva) in HBS-P+ running buffer (pH 7.4), containing 2 mM TCEP. After surface activation with EDC/NHS (contact time 420 s, flow rate 10 µl/min) SMARCA2^BD and SMARCA4^BD at 0.01–0.05 mg/ml in coupling buffer (10 mM Na-Acetate pH 6.5, 0.005% TWEEN 20 and 50 µM PFI-3[13]) were immobilised to a density of 100–5000 Response Units (RU). The reference surface was subsequently deactivated using 1 M ethanolamine. For VCB immobilisation, streptavidin (Sigma Aldrich, prepared at 1 mg/ml in 10 mM sodium acetate coupling buffer, pH 5.0) was immobilised by amine coupling to a density of 3000–5000 RU after which biotinylated VCB complex (0.125 mM in running buffer) was streptavidin-coupled to a density of 100–500 RU. Biotinylated VCB was prepared as previously described[27]: in brief, the complex was mixed 1:1 with EZ-Link NHS–PEG4–biotin (Thermo Scientific) and incubated at room temperature for 1 h.
(SPR reads the build-up and loss of mass on a sensor chip optically.)

Experiment [1] concerns VCB: PROTAC: SMARCA4^BD ternary complex. Briefly: TR-FRET ternary complex affinity and cooperativity, SMARCA4. In kind it is binding, human. Conditions: ratio TR-FRET EC50 / TR-FRET EC50 +VCB measured in the same run, SMARCA4BD.
The target of experiment [2] is VCB: PROTAC: SMARCA4^BD ternary complex (Homo sapiens, UniProt P40337+P51532). The description is as above. In kind it is binding. Details: P51532, residues 1448–1569 with additional N-terminal SM residues; GST (TEV site) (N); His6 (TEV site) (N, cleaved yes); made in house; host or cells: SMARCA4^BD: Escherichia coli BL21(DE3).
Sequence of VCB: PROTAC: SMARCA4^BD ternary complex (Homo sapiens, UniProt P40337+P51532) (P51532 1448-1569): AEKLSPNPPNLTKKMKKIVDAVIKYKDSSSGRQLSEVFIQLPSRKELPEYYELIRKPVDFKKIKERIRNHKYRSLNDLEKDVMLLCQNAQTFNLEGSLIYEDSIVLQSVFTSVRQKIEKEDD
Sequence of VCB: PROTAC: SMARCA4^BD ternary complex (Homo sapiens, UniProt P40337+P51532) (P40337 54-213): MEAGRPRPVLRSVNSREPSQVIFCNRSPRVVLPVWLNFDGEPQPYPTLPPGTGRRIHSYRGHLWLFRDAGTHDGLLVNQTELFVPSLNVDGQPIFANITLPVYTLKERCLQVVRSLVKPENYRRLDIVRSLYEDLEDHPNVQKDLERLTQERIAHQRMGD
Sequence of VCB: PROTAC: SMARCA4^BD ternary complex (Homo sapiens, UniProt P40337+P51532) (Q15369 17-112 partner): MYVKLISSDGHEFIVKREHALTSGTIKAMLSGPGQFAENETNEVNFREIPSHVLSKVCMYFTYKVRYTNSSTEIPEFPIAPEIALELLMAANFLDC
Sequence of VCB: PROTAC: SMARCA4^BD ternary complex (Homo sapiens, UniProt P40337+P51532) (Q15370 1-104 partner): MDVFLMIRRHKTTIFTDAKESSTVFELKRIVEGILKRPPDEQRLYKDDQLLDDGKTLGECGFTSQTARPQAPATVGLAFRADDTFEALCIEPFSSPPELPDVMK
Where [3] appears, read: PROTAC + VCB, individual replicates, read-out: Ternary SMARCA4 BD EC50 (PROTAC + VCB).
[4] abbreviates: TR-FRET competition for SMARCA4BD, + VCB, mean ± SD, read-out: TR-FRET Ternary SMARCA4BD EC50 (PROTAC + VCB).

SMILES strings stand for the structures. Values joined by “and” are separate entries in the source; they are usually repeats but may differ in a detail not shown here. Equal entries are not always repeated. Where two headings read alike, the source gives them in different places.

T1 sequence (P51532 1448-1569): as the sequence (P51532 1448-1569) above

The term Kd denotes the equilibrium constant for the complex coming apart. Low readings indicate higher affinity, high ones lower affinity. One may read the EC50 as the midpoint of the concentration-response curve. As for `Cc1ncsc1-c1ccc([C@H](COC(C)(C)CN2CCC(c3ccc4c(c3)n(C3CCCC3)c3nc(=O)c5c(Br)cccc5n43)CC2)NC(=O)[C@@H]2C[C@@H](O)CN2C(=O)[C@@H](NC(=O)C2(F)CC2)C(C)(C)C)cc1` [compound 28], the Kd on SMARCA4^BD (SMARCA4BD, mean ± SD) was 278 ± 14 nM; at SMARCA4^BD (individual replicates), 267 nM and 293 nM and 274 nM. Further, the “cooperativity α (SMARCA4BD)” value in experiment [1] was determined as 3.2 ± 0.7. Also, the 50% effective concentration (EC50) in experiment [2] (setting [3]) was 99.7 nM and 76.7 nM and 88 nM and 49.7 nM; in experiment [2] (setting [4]) it was 76 ± 21 nM.
Regarding `Cc1ncsc1-c1ccc([C@H](COC(C)CN2CCC(c3ccc4c(c3)n(C3CCCC3)c3nc(=O)c5c(Br)cccc5n43)CC2)NC(=O)[C@@H]2C[C@@H](O)CN2C(=O)[C@@H](NC(=O)C2(N(C)C)CC2)C(C)(C)C)cc1` (some centres unmarked) [compound 10], the Kd was 381 ± 28 nM at SMARCA4^BD (SMARCA4BD, mean ± SD); 359 nM and 413 nM and 372 nM at SMARCA4^BD (individual replicates). In addition, the “cooperativity α (SMARCA4BD)” value in experiment [1] was found to be 2.6 ± 0.8. Also, the concentration giving a half-maximal response (EC50) in experiment [2] (setting [3]) is 69.6 nM and 88.2 nM and 77.2 nM and 49.4 nM; in experiment [2] (setting [4]), 70 ± 16 nM.
Take `Cc1ncsc1-c1ccc([C@H](COC(C)CN2CCC(c3ccc4c(c3)n(C3CCCC3)c3nc(=O)c5c(Br)cccc5n43)CC2)NC(=O)[C@@H]2C[C@@H](O)CN2C(=O)[C@@H](NC(=O)C2(F)CC2)C(C)(C)C)cc1` (some centres unmarked) [compound 9]: the Kd at SMARCA4^BD (SMARCA4BD, mean ± SD) is 505 ± 184 nM; on SMARCA4^BD (individual replicates) it was 361 nM and 443 nM and 712 nM. Also, in experiment [1], the “cooperativity α (SMARCA4BD)” value came out at 2.2 ± 0.2. The concentration giving a half-maximal response (EC50) in experiment [2] (setting [3]) was 88.4 nM and 113 nM and 133 nM and 114 nM and 84.3 nM; in experiment [2] (setting [4]) it was 105 ± 20 nM.
`Cc1ncsc1-c1ccc([C@H](CCCCN2CCC(c3ccc4c(c3)n(C3CCCC3)c3nc(=O)c5c(Br)cccc5n43)CC2)NC(=O)[C@@H]2C[C@@H](O)CN2C(=O)[C@@H](NC(=O)C2(F)CC2)C(C)(C)C)cc1` [compound 25]: the Kd at SMARCA4^BD (SMARCA4BD, mean ± SD) is 153 ± 10 nM; at SMARCA4^BD (individual replicates), 142 nM and 157 nM and 161 nM. Moreover, the “cooperativity α (SMARCA4BD)” value in experiment [1] is given as 2.3 ± 0.4. Besides, the EC50 was 69.7 nM and 82.3 nM and 75.3 nM and 90.7 nM in experiment [2] (setting [3]); 79 ± 9 nM in experiment [2] (setting [4]).
Turning to `O=c1nc2n(C3CCCC3)c3ccccc3n2c2cccc(Br)c12` [compound 1], the Kd is 1680 ± 317 nM on SMARCA4^BD (SMARCA4BD, mean ± SD); 1320 nM and 1830 nM and 1900 nM on SMARCA4^BD (individual replicates). For the same compound, the EC50 in experiment [2] (setting [3]) is 824 nM and 894 nM and 817 nM; in experiment [2] (setting [4]) it was 844 ± 42 nM.
In the case of `CN1CCN(c2nc(=O)c3ccccc3o2)CC1` [compound 14], on SMARCA4^BD (individual replicates), the Kd is > 200000 nM and 140000 nM. Also, the EC50 in experiment [2] (setting [3]) is greater than 10000 nM.
`CN1CCN(c2nc(=O)c3c(I)cccc3o2)CC1` [compound 16]: the equilibrium dissociation constant (Kd) is 22100 ± 1230 nM at SMARCA4^BD (SMARCA4BD, mean ± SD); 23100 nM and 20700 nM and 22400 nM on SMARCA4^BD (individual replicates). Also, in experiment [2] (setting [3]), the EC50 is greater than 10000 nM.
With `CN1CCC(c2ccc3c(c2)n(C2CCCC2)c2nc(=O)c4c(Br)cccc4n32)CC1` [compound 3], the Kd on SMARCA4^BD (SMARCA4BD, mean ± SD) was 58 ± 10 nM; at SMARCA4^BD (individual replicates) it was 110 nM and 97.7 nM and 113 nM and 69.4 nM and 51 nM and 52.7 nM. For the same compound, the EC50 is 101 nM and 109 nM (2×) and 108 nM and 118 nM (2×) and 103 nM and 112 nM and 115 nM (2×) and 104 nM and 76.8 nM and 91.4 nM and 77.5 nM and 72.4 nM and 95.9 nM and 122 nM and 90.9 nM and 83.6 nM and 106 nM and 89.9 nM and 93.4 nM (2×) and 86.9 nM and 97.7 nM and 84.8 nM and 184 nM and 180 nM and 117 nM and 86 nM and 87.9 nM and 87.4 nM and 189 nM and 202 nM and 148 nM and 124 nM and 121 nM and 136 nM and 97.4 nM and 130 nM and 99.2 nM and 105 nM and 102 nM in experiment [2] (setting [3]); 108 ± 30 nM in experiment [2] (setting [4]).
As for `CN1CCN(c2nc(=O)c3c(Cl)cccc3o2)CC1` [compound 13], the Kd at SMARCA4^BD (SMARCA4BD, mean ± SD) is 35600 ± 346 nM; on SMARCA4^BD (individual replicates), 31600 nM and 37500 nM and 37700 nM. Moreover, the EC50 in experiment [2] (setting [3]) was greater than 10000 nM.
Turning to `Nc1cccc2c1c(=O)nc1n(C3CCCC3)c3ccccc3n21` [compound 2], the dissociation constant (Kd) on SMARCA4^BD (SMARCA4BD, mean ± SD) is 2750 ± 455 nM; on SMARCA4^BD (individual replicates), 2.74 µM and 2.3 µM and 3.21 µM and > 2 µM (2×). Moreover, the EC50 was 2270 nM and 2610 nM and 2110 nM in experiment [2] (setting [3]); 2320 nM in experiment [2] (setting [4]).
Regarding `CN1CCN(c2nc(=O)c3c(F)cccc3o2)CC1` [compound 17], in experiment [2] (setting [3]), the half-maximal effective concentration (EC50) was greater than 10000 nM.
On to `CN1CCN(c2nc(=O)c3c(Br)cccc3o2)CC1` [compound 15], for which the Kd at SMARCA4^BD (SMARCA4BD, mean ± SD) is 12000 ± 902 nM; at SMARCA4^BD (individual replicates) it was 12900 nM and 11900 nM and 11100 nM. Moreover, the concentration giving a half-maximal response (EC50) in experiment [2] (setting [3]) is greater than 10000 nM.
